Measurements reported in patent US20240417410A1, “TRICYCLIC COMPOUNDS FOR THE TREATMENT OF CANCER” (Hoffmann-La Roche Inc., priority 2023, published 2024).

Legend:
[1] = test system: AGS cells (KRAS G12D); assay: Cell viability assay (Cell Counting Kit-8, 3-day); type: cell-based, human; details: Homo sapiens, 72 h, 72 hrs incubation
In short: (§1)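 72-hr compound treatment, 0.5% DMSO final; NCI-H358 seeded 5,000 cells/well, AGS and SW620 2,000 cells/well. Endpoint: CCK-8, 2-hr development, OD450 minus OD650.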

[2] = test system: NCI-H358 cells (KRAS G12C); assay: Cell viability assay (Cell Counting Kit-8, 3-day); type: cell-based, human; details: Homo sapiens, NCI-H358, 72 h, NCI-H358, 72 hrs incubation
In short: as §1

[3] = test system: SW620 cells (KRAS G12V); assay: Cell viability assay (Cell Counting Kit-8, 3-day); type: cell-based, human; details: Homo sapiens, SW-620; SW620, 72 hrs incubation
In short: as §1

[4] = target: KRAS G12C-BRAF complex (Homo sapiens (Human), UniProt P01116+P62937, G12C); assay: KRAS-BRAF with CYPA (500 nM) interaction assay (TR-FRET, Example 136); type: biochemical; details: KRAS G12C-BRAF disruption
Chain of KRAS G12C-BRAF complex (P01116-2 other isoform, or with tags, fused parts or gaps G12C): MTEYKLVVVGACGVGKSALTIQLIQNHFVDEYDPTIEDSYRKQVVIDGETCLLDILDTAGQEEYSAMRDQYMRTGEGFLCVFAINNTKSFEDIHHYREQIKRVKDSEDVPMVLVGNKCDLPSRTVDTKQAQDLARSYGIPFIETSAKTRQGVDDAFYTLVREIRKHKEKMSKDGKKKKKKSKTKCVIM
Chain of KRAS G12C-BRAF complex (P62937 whole entry): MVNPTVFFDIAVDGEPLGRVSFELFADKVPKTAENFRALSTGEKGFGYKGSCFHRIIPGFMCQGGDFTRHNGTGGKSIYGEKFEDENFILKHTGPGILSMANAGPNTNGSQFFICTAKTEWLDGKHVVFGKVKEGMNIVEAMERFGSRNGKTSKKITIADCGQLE

[5] = test system: phosphorylation of ERK, KRAS G12C in NCI-H358 cells; assay: pERK inhibition assay; type: cell-based; details: Homo sapiens, NCI-H358, 4 h
In short: (§2)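 Phospho-ERK quantified by in-cell ELISA with TMB read-out at OD450 following 4 h compound exposure (final 0.5% DMSO). Cell lines were SW620 (KRAS G12V), AGS (G12D) and NCI-H358 (G12C), grown in RPMI-1640 with 10% FBS. A 4-parameter sigmoidal model gave the IC50.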

[6] = test system: phosphorylation of ERK, KRAS G12D in AGS cells; assay: pERK inhibition assay; type: cell-based; details: Homo sapiens, AGS, 4 h
In short: as §2

[7] = test system: phosphorylation of ERK, KRAS G12V in SW620; assay: pERK inhibition assay; type: cell-based; details: Homo sapiens, SW-620, 4 h, SW620 cells
In short: as §2

Compound: CO[C@@H](C)c1ncc(N2CCN(C)CC2)cc1-c1c2c3cc(cc4c3n1CCC4)-c1csc(n1)C[C@H](NC(=O)[C@@H]1C[C@H]1C1CC1)C(=O)N1CCC[C@H](N1)C(=O)OCC(C)(C)C2 (atropisomer, axis not shown; (M)) [Example 16, (1R,2S)-2-cyclopropyl-N-[(7S,13S)-(20M)-20-[2-[(1S)-1-methoxyethyl]-5-(4-methylpiperazin-1-yl)-3-pyridyl]-17,17-dimethyl-8,14-dioxo-15-oxa-4-thia-9,21,30,31-tetrazahexacyclo[23.3.1.1^2,5.1^9,13.0^19,27.0^21,26]hentriaconta-1 (28),2,5 (31),19,25 (29),26-hexaen-7-yl]cyclopropanecarboxamide]
- IC50 [1]: 25.9 nM
- IC50 [2]: 7.3 nM
- IC50 [3]: 1.6 nM
- IC50 [4]: 10.2 nM
- IC50 [5]: 4.6 nM
- IC50 [6]: 2.6 nM
- IC50 [7]: 2.8 nM

Compound: CO[C@@H](C)c1ncc(N2CCN(C)CC2)cc1-c1c2c3cc(cc4c3n1CC(F)(F)C4)-c1csc(n1)C[C@H](NC(=O)[C@H]1C[C@@H]1C)C(=O)N1CCC[C@H](N1)C(=O)OCC(C)(C)C2 (atropisomer, axis not shown; (M)) [Example 18, (1S,2S)-N-[(7S,13S)-23,23-difluoro-(20M)-20-[2-[(1S)-1-methoxyethyl]-5-(4-methylpiperazin-1-yl)-3-pyridyl]-17,17-dimethyl-8,14-dioxo-15-oxa-4-thia-9,21,30,31-tetrazahexacyclo[23.3.1.1^2,5.1^9,13.0^19,27.0^21,26]hentriaconta-1 (28),2,5 (31),19,25 (29),26-hexaen-7-yl]-2-methyl-cyclopropanecarboxamide]
- IC50 [1]: 54.5 nM
- IC50 [2]: 18 nM
- IC50 [3]: 2.9 nM
- IC50 [4]: 14.7 nM
- IC50 [5]: 16.8 nM
- IC50 [6]: 7.7 nM
- IC50 [7]: 7.4 nM

Compound: CO[C@@H](C)c1ncc(N2CCN(CC(F)(F)F)CC2)cc1-c1c2c3cc(cc4c3n1CCC4)-c1csc(n1)C[C@H](NC(=O)[C@H]1C[C@@H]1C(F)F)C(=O)N1CCC[C@H](N1)C(=O)OCC(C)(C)C2 (atropisomer, axis not shown; (M)) [Example 21, (1S,2S)-2-(difluoromethyl)-N-[(7S,13S)-(20M)-20-[2-[(1S)-1-methoxyethyl]-5-[4-(2,2,2-trifluoroethyl)piperazin-1-yl]-3-pyridyl]-17,17-dimethyl-8,14-dioxo-15-oxa-4-thia-9,21,30,31-tetrazahexacyclo[23.3.1.1^2,5.1^9,13.0^19,27.0^21,26]hentriaconta-1 (28),2,5 (31),19,25 (29),26-hexaen-7-yl]cyclopropanecarboxamide]
- IC50 [1]: 56.2 nM
- IC50 [2]: 15.3 nM
- IC50 [3]: 1.9 nM
- IC50 [4]: 15 nM
- IC50 [5]: 2.1 nM
- IC50 [6]: 8.8 nM
- IC50 [7]: 1.4 nM

Compound: CO[C@@H](C)c1ncc(N2CCN(C)CC2)cc1-c1c2c3cc(cc4c3n1CCC4)-c1csc(n1)C[C@H](NC(=O)[C@H]1C[C@@H]1c1ccccc1)C(=O)N1CCC[C@H](N1)C(=O)OCC(C)(C)C2 (atropisomer, axis not shown; (M)) [Example 22, (1S,2S)-N-[(7S,13S)-(20M)-20-[2-[(1S)-1-methoxyethyl]-5-(4-methylpiperazin-1-yl)-3-pyridyl]-17,17-dimethyl-8,14-dioxo-15-oxa-4-thia-9,21,30,31-tetrazahexacyclo[23.3.1.1^2,5.1^9,13.0^19,27.0^21,26]hentriaconta-1 (28),2,5 (31), 19,25 (29),26-hexaen-7-yl]-2-phenyl-cyclopropanecarboxamide]
- IC50 [1]: 14.2 nM
- IC50 [2]: 3.1 nM
- IC50 [3]: 0.8 nM
- IC50 [4]: 6.4 nM
- IC50 [5]: 0.6 nM
- IC50 [6]: 3.8 nM
- IC50 [7]: 0.7 nM
